Assay: recombinant UMI read abundance after kanamycin selection (control-corrected) (log10(CPM+1)); higher = more efficient recombination; extreme values may be limits of the assay; sequences stand for … in AGTGCAGAGAAAATCGGCCAGTTTTCTCTGCCTGCAGTCCGCATGCCGTGGGACCCCTTGGGTTCTAACCTGTTGCCTAGATTTATGCAGCGGACTGCCTTTCTCCCAAAGTGATAAACCGG…AGGTTGGTTTCACT; site = the 11-nt donor
Method in brief: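 Under IPTG (0.07 mM) plus kanamycin, or without selection, Escherichia coli carrying a UMI-tagged donor and donor-binding-loop pair library and a target plasmid for the IS621 bridge recombinase were plated in two replicates. Recombinant UMIs were PCR-amplified across the donor–target junction and sequenced. Counts were converted to CPM, averaged over replicates, scaled by control-derived factors and reported as log10(CPM+1).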
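Note: IS621 bridge recombinase in Escherichia coli cells against a fixed T5 target plasmid.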

Sequence	recombinant UMI read abundance (log10)
GGGGGACCATGGACCGGTTTTCCCGGTAATCCGTATTTGCA (site GGGGTACCTTG)	0
GGGGTACCATGGACCGGTTTTCCCGGTAATCCGTATTTGCA (site GGGGAACCTTG)	0
GGGGTACCATGGACCGGTTTTCCCGGTAATCCGTATTTGCA (site GGGGCACCTTG)	0
GGGGTACCATGGACCGGTTTTCCCGGTAATCCGTATTTGCA (site GGGGGACCTTG)	0
GGGGTACCATGGACCGGTTTTCCCGGTAATCCGTATTTGCA (site GGGGTACCTTG)	0
GGGGTGGCATGGACCGGTTTTCCCGGTAATCCGTATTTGGT (site GGAGTGGCTAC)	0.553
GGGGTGGCATGGACCGGTTTTCCCGGTAATCCGTATTTGGT (site GGCGTGGCTAC)	0.0131
GGGGTGGCATGGACCGGTTTTCCCGGTAATCCGTATTTGGT (site GGGGTGGCTAC)	0.659
GGGGTGGCATGGACCGGTTTTCCCGGTAATCCGTATTTGGT (site GGTGTGGCTAC)	0.146
GGGTATCCATGGACCGGTTTTCCCGGTAATCCGTATTTGTT (site CGGAATCCTAA)	0
GGGTATCCATGGACCGGTTTTCCCGGTAATCCGTATTTGTT (site GGGTATCCTAA)	0.0203
GGGTCACCATGGACCGGTTTTCCCGGTAATCCGTATTTGCA (site GGGACACCTTG)	0
GGGTCACCATGGACCGGTTTTCCCGGTAATCCGTATTTGCA (site GGGCCACCTTG)	0
GGGTCACCATGGACCGGTTTTCCCGGTAATCCGTATTTGCA (site GGGGCACCTTG)	0
GGGTCACCATGGACCGGTTTTCCCGGTAATCCGTATTTGCA (site GGGTCACCTTG)	0
GGGTGTGCATGGACCGGTTTTCCCGGTAATCCGTATTTGGC (site GGGTGTGCTGC)	3

Sequence	recombinant UMI read abundance (log10)
GGGTTCCCATGGACCGGTTTTCCCGGTAATCCGTATTTGTC (site GGGTTCCCTGA)	0
GGTAAACCATGGACCGGTTTTCCCGGTAATCCGTATTTGAA (site GGTAAACCTTT)	0
GGTACGGCATGGACCGGTTTTCCCGGTAATCCGTATTTGTT (site GGTACGACTAA)	0.00937
GGTACGGCATGGACCGGTTTTCCCGGTAATCCGTATTTGTT (site GGTACGCCTAA)	0.0122
GGTACGGCATGGACCGGTTTTCCCGGTAATCCGTATTTGTT (site GGTACGGCTAA)	0.0127
GGTACGGCATGGACCGGTTTTCCCGGTAATCCGTATTTGTT (site GGTACGTCTAA)	0
GGTACGTCATGGACCGGTTTTCCCGGTAATCCGTATTTGCT (site GGTACGTCTAA)	0.0386
GGTACGTCATGGACCGGTTTTCCCGGTAATCCGTATTTGCT (site GGTACGTCTAC)	0.0226
GGTACGTCATGGACCGGTTTTCCCGGTAATCCGTATTTGCT (site GGTACGTCTAG)	2
GGTACGTCATGGACCGGTTTTCCCGGTAATCCGTATTTGCT (site GGTACGTCTAT)	0.00579
GGTACGTCATGGACCGGTTTTCCCGGTAATCCGTATTTGGT (site GGTACGTCTAA)	0.00807
GGTACGTCATGGACCGGTTTTCCCGGTAATCCGTATTTGGT (site GGTACGTCTAC)	1.33
GGTACGTCATGGACCGGTTTTCCCGGTAATCCGTATTTGGT (site GGTACGTCTAG)	0
GGTACGTCATGGACCGGTTTTCCCGGTAATCCGTATTTGGT (site GGTACGTCTAT)	0.339
GGTACGTCATGGACCGGTTTTCCCGGTAATCCGTATTTGTG (site GGTACGTCTAA)	0.0133
GGTACGTCATGGACCGGTTTTCCCGGTAATCCGTATTTGTG (site GGTACGTCTCA)	0.338

From the supplement of paper PMC11208160
